# Measured values published in the NIST ThermoML archive (doi:10.1021/je7004006).
# ± gives the expanded uncertainty stated by the source.
# Assay: molar heat capacity at constant pressure
# Conditions: 101.33 kPa, Crystal, Small (less than 1 g) adiabatic calorimetry
smiles,measurement,setting,value
O=C([O-])c1cccnc1.O=C([O-])c1cccnc1.O=C([O-])c1cccnc1.[Cr+3] [chromium nicotinate],molar heat capacity at constant pressure,78.3 K,123.81 ± 0.9 J/K/mol
same,molar heat capacity at constant pressure,79.58 K,125.36 ± 0.91 J/K/mol
same,molar heat capacity at constant pressure,80.78 K,127.92 ± 0.93 J/K/mol
same,molar heat capacity at constant pressure,83.27 K,130.33 ± 0.95 J/K/mol
same,molar heat capacity at constant pressure,85.75 K,132.64 ± 0.96 J/K/mol
same,molar heat capacity at constant pressure,87.67 K,134.61 ± 0.98 J/K/mol
same,molar heat capacity at constant pressure,88.87 K,136.08 ± 0.99 J/K/mol
same,molar heat capacity at constant pressure,90.15 K,137.63 ± 0.98 J/K/mol
same,molar heat capacity at constant pressure,92 K,139.67 ± 1 J/K/mol
same,molar heat capacity at constant pressure,93.27 K,141.41 ± 1 J/K/mol
same,molar heat capacity at constant pressure,94.62 K,142.98 ± 1 J/K/mol
same,molar heat capacity at constant pressure,95.9 K,144.85 ± 1 J/K/mol
same,molar heat capacity at constant pressure,97.32 K,146.89 ± 1 J/K/mol
same,molar heat capacity at constant pressure,98.81 K,148.83 ± 1.1 J/K/mol
same,molar heat capacity at constant pressure,100.39 K,151.39 ± 1.1 J/K/mol
same,molar heat capacity at constant pressure,102.33 K,154.15 ± 1.1 J/K/mol
same,molar heat capacity at constant pressure,104.42 K,157.04 ± 1.1 J/K/mol
same,molar heat capacity at constant pressure,106.52 K,159.91 ± 1.1 J/K/mol
same,molar heat capacity at constant pressure,108.56 K,162.72 ± 1.1 J/K/mol
same,molar heat capacity at constant pressure,110.57 K,165.32 ± 1.2 J/K/mol
same,molar heat capacity at constant pressure,112.55 K,168.16 ± 1.2 J/K/mol
same,molar heat capacity at constant pressure,114.51 K,171.37 ± 1.2 J/K/mol
same,molar heat capacity at constant pressure,116.44 K,174.23 ± 1.2 J/K/mol
same,molar heat capacity at constant pressure,118.51 K,177.09 ± 1.2 J/K/mol
same,molar heat capacity at constant pressure,120.7 K,180.42 ± 1.3 J/K/mol
same,molar heat capacity at constant pressure,122.86 K,183.21 ± 1.3 J/K/mol
same,molar heat capacity at constant pressure,125 K,186.13 ± 1.3 J/K/mol
same,molar heat capacity at constant pressure,127.12 K,189.86 ± 1.3 J/K/mol
same,molar heat capacity at constant pressure,129.2 K,192.42 ± 1.3 J/K/mol
same,molar heat capacity at constant pressure,131.27 K,194.83 ± 1.4 J/K/mol
same,molar heat capacity at constant pressure,133.29 K,197.19 ± 1.4 J/K/mol
same,molar heat capacity at constant pressure,135.34 K,199.39 ± 1.4 J/K/mol
same,molar heat capacity at constant pressure,137.35 K,202.21 ± 1.4 J/K/mol
same,molar heat capacity at constant pressure,139.34 K,205.13 ± 1.4 J/K/mol
same,molar heat capacity at constant pressure,141.27 K,208.55 ± 1.4 J/K/mol
same,molar heat capacity at constant pressure,143.29 K,211.67 ± 1.5 J/K/mol
same,molar heat capacity at constant pressure,145.18 K,214.31 ± 1.5 J/K/mol
same,molar heat capacity at constant pressure,147.24 K,217.25 ± 1.5 J/K/mol
same,molar heat capacity at constant pressure,149.26 K,220.52 ± 1.5 J/K/mol
same,molar heat capacity at constant pressure,151.28 K,222.96 ± 1.5 J/K/mol
same,molar heat capacity at constant pressure,153.41 K,226.31 ± 1.6 J/K/mol
same,molar heat capacity at constant pressure,155.54 K,229.13 ± 1.6 J/K/mol
same,molar heat capacity at constant pressure,157.62 K,231.64 ± 1.6 J/K/mol
same,molar heat capacity at constant pressure,159.7 K,235.03 ± 1.6 J/K/mol
same,molar heat capacity at constant pressure,161.75 K,238.11 ± 1.6 J/K/mol
same,molar heat capacity at constant pressure,163.85 K,240.81 ± 1.7 J/K/mol
same,molar heat capacity at constant pressure,165.85 K,243.11 ± 1.7 J/K/mol
same,molar heat capacity at constant pressure,167.87 K,246.05 ± 1.7 J/K/mol
same,molar heat capacity at constant pressure,169.89 K,248.77 ± 1.7 J/K/mol
same,molar heat capacity at constant pressure,171.91 K,251.87 ± 1.7 J/K/mol
same,molar heat capacity at constant pressure,173.84 K,254.46 ± 1.8 J/K/mol
same,molar heat capacity at constant pressure,175.86 K,257.44 ± 1.8 J/K/mol
same,molar heat capacity at constant pressure,177.79 K,260.13 ± 1.8 J/K/mol
same,molar heat capacity at constant pressure,179.73 K,262.72 ± 1.8 J/K/mol
same,molar heat capacity at constant pressure,181.66 K,265.17 ± 1.8 J/K/mol
same,molar heat capacity at constant pressure,183.6 K,268.44 ± 1.9 J/K/mol
same,molar heat capacity at constant pressure,185.62 K,271.07 ± 1.9 J/K/mol
same,molar heat capacity at constant pressure,187.71 K,274.19 ± 1.9 J/K/mol
same,molar heat capacity at constant pressure,189.73 K,277.14 ± 1.9 J/K/mol
same,molar heat capacity at constant pressure,191.82 K,280.35 ± 1.9 J/K/mol
same,molar heat capacity at constant pressure,193.92 K,283.85 ± 1.9 J/K/mol
same,molar heat capacity at constant pressure,196.02 K,286.68 ± 2 J/K/mol
same,molar heat capacity at constant pressure,198.11 K,289.66 ± 2 J/K/mol
same,molar heat capacity at constant pressure,200.29 K,293.01 ± 2 J/K/mol
same,molar heat capacity at constant pressure,202.31 K,295.75 ± 2 J/K/mol
same,molar heat capacity at constant pressure,204.32 K,298.67 ± 2 J/K/mol
same,molar heat capacity at constant pressure,206.42 K,301.71 ± 2.1 J/K/mol
same,molar heat capacity at constant pressure,208.43 K,304.98 ± 2.1 J/K/mol
same,molar heat capacity at constant pressure,210.45 K,308.04 ± 2.1 J/K/mol
same,molar heat capacity at constant pressure,212.47 K,310.72 ± 2.1 J/K/mol
same,molar heat capacity at constant pressure,214.4 K,313.38 ± 2.1 J/K/mol
same,molar heat capacity at constant pressure,216.42 K,316.97 ± 2.2 J/K/mol
same,molar heat capacity at constant pressure,218.35 K,320.03 ± 2.2 J/K/mol
same,molar heat capacity at constant pressure,220.29 K,324.12 ± 2.2 J/K/mol
same,molar heat capacity at constant pressure,222.3 K,325.43 ± 2.2 J/K/mol
same,molar heat capacity at constant pressure,224.24 K,328.85 ± 2.2 J/K/mol
same,molar heat capacity at constant pressure,226.09 K,332.72 ± 2.3 J/K/mol
same,molar heat capacity at constant pressure,228.83 K,337.34 ± 2.3 J/K/mol
same,molar heat capacity at constant pressure,231.74 K,341.35 ± 2.3 J/K/mol
same,molar heat capacity at constant pressure,234.72 K,345.07 ± 2.4 J/K/mol
same,molar heat capacity at constant pressure,237.78 K,349.99 ± 2.4 J/K/mol
same,molar heat capacity at constant pressure,241.01 K,354.61 ± 2.4 J/K/mol
same,molar heat capacity at constant pressure,244.07 K,360.78 ± 2.5 J/K/mol
same,molar heat capacity at constant pressure,247.13 K,364.57 ± 2.5 J/K/mol
same,molar heat capacity at constant pressure,250.28 K,369.63 ± 2.5 J/K/mol
same,molar heat capacity at constant pressure,253.26 K,373.95 ± 2.5 J/K/mol
same,molar heat capacity at constant pressure,256.33 K,378.71 ± 2.6 J/K/mol
same,molar heat capacity at constant pressure,259.39 K,383.32 ± 2.6 J/K/mol
same,molar heat capacity at constant pressure,262.45 K,388.08 ± 2.6 J/K/mol
same,molar heat capacity at constant pressure,265.52 K,392.41 ± 2.7 J/K/mol
same,molar heat capacity at constant pressure,268.5 K,397.46 ± 2.7 J/K/mol
same,molar heat capacity at constant pressure,271.49 K,402.07 ± 2.7 J/K/mol
same,molar heat capacity at constant pressure,274.55 K,406.39 ± 2.8 J/K/mol
same,molar heat capacity at constant pressure,277.77 K,410.55 ± 2.8 J/K/mol
same,molar heat capacity at constant pressure,280.84 K,415.32 ± 2.8 J/K/mol
same,molar heat capacity at constant pressure,283.98 K,420.08 ± 2.9 J/K/mol
same,molar heat capacity at constant pressure,287.05 K,425.14 ± 2.9 J/K/mol
same,molar heat capacity at constant pressure,290.11 K,429.31 ± 2.9 J/K/mol
same,molar heat capacity at constant pressure,293.25 K,432.73 ± 2.9 J/K/mol
same,molar heat capacity at constant pressure,296.24 K,436.89 ± 3 J/K/mol
same,molar heat capacity at constant pressure,299.14 K,441.06 ± 3 J/K/mol
same,molar heat capacity at constant pressure,302.2 K,445.38 ± 3 J/K/mol
same,molar heat capacity at constant pressure,305.27 K,449.99 ± 3 J/K/mol
same,molar heat capacity at constant pressure,308.25 K,453.86 ± 3.1 J/K/mol
same,molar heat capacity at constant pressure,311.39 K,458.92 ± 3.1 J/K/mol
same,molar heat capacity at constant pressure,314.62 K,464.13 ± 3.1 J/K/mol
same,molar heat capacity at constant pressure,317.68 K,468.44 ± 3.2 J/K/mol
same,molar heat capacity at constant pressure,320.91 K,472.31 ± 3.2 J/K/mol
same,molar heat capacity at constant pressure,324.13 K,476.78 ± 3.2 J/K/mol
same,molar heat capacity at constant pressure,327.12 K,480.35 ± 3.2 J/K/mol
same,molar heat capacity at constant pressure,329.78 K,484.81 ± 3.3 J/K/mol
same,molar heat capacity at constant pressure,332.44 K,488.54 ± 3.3 J/K/mol
same,molar heat capacity at constant pressure,335.1 K,492.26 ± 3.3 J/K/mol
same,molar heat capacity at constant pressure,337.84 K,495.98 ± 3.4 J/K/mol
same,molar heat capacity at constant pressure,340.5 K,499.71 ± 3.4 J/K/mol
same,molar heat capacity at constant pressure,343.24 K,503.86 ± 3.4 J/K/mol
same,molar heat capacity at constant pressure,346.06 K,507.44 ± 3.4 J/K/mol
same,molar heat capacity at constant pressure,348.97 K,511.45 ± 3.5 J/K/mol
same,molar heat capacity at constant pressure,351.79 K,514.88 ± 3.5 J/K/mol
same,molar heat capacity at constant pressure,354.53 K,518.75 ± 3.5 J/K/mol
same,molar heat capacity at constant pressure,357.43 K,523.81 ± 3.5 J/K/mol
same,molar heat capacity at constant pressure,360.34 K,528.42 ± 3.6 J/K/mol
same,molar heat capacity at constant pressure,363 K,532.73 ± 3.6 J/K/mol
same,molar heat capacity at constant pressure,365.9 K,536.45 ± 3.6 J/K/mol
same,molar heat capacity at constant pressure,368.64 K,539.88 ± 3.6 J/K/mol
same,molar heat capacity at constant pressure,371.37 K,543.64 ± 3.7 J/K/mol
same,molar heat capacity at constant pressure,374.08 K,547.89 ± 3.7 J/K/mol
same,molar heat capacity at constant pressure,376.98 K,552.51 ± 3.7 J/K/mol
same,molar heat capacity at constant pressure,379.69 K,556.21 ± 3.8 J/K/mol
same,molar heat capacity at constant pressure,382.38 K,559.42 ± 3.8 J/K/mol
same,molar heat capacity at constant pressure,385.12 K,562.83 ± 3.8 J/K/mol
same,molar heat capacity at constant pressure,387.85 K,566.51 ± 3.8 J/K/mol
same,molar heat capacity at constant pressure,390.52 K,569.91 ± 3.8 J/K/mol
